In this assay the test system is human neutrophil adhesion to TNFα, IL-1α, and LPS-stimulated human umbilical vein endothelial cells. Kind of assay: Inhibition of human neutrophil adhesion to stimulated HUVEC (51Cr-labeled neutrophils). The format is cell-based. An excerpt: METHOD FOR DETERMINING THE INHIBITION OF HUMAN NEUTROPHIL ADHESION TO TNFα, IL-1α, AND LPS-STIMULATED HUMAN UMBILICAL VEIN ENDOTHELIAL CELLS BY 3-ALKYLOXY-, ARYLOXY-, OR ARYLALKYLOXY BENZO[b]THIOPHENE-2-CARBOXAMIDES
Neutrophils were isolated from anticoagulant-treated venous blood obtained from healthy human volunteers according to the method of Ferrante and Thong (J. Immunol. Methods 1978;24:389-93).
Second passage human umbilical vein endothelial cells (HUVEC) (Clonetics, San Diego, Calif.) were seeded into Falcon 24-well cell culture plates (Becton Dickinson, Lincoln Park, N.J.) at approximately 2×10^4 cells per well. The cells were grown to confluent monolayers in endothelial basal medium (EBM, Clonetics) supplemented with 5% fetal calf serum (Hyclone Laboratories, Logan, Utah), 10 ng/mL EGF, 1 μg/mL hydrocortisone, 0.4% bovine brain extract (Clonetics) in 5% CO2 at 37° C.
Neutrophils (30×10^6) were labeled for 60 minutes at 37° C. with 100 μCi Na^51 CrO4 (ICN Biomedicals, Costa Mesa, Calif.) in 2.0 mL Ca^2+ - and Mg^2+ -free Hanks' balanced salt solution (HBSS, GIBCO Laboratories, Grand Island, N.Y.). The cells were washed two times in HBSS and suspended in unsupplemented EBM.
Stimulation of HUVEC with tumor necrosis factor-α (TNFα) (Genzyme, Cambridge, Mass.) , interleukin (IL-1α) (Genzyrne) or E. coli 0111:B4 lipopolysaccharide (LPS) (Sigma) in the presence or absence of drug was initiated 4 hours prior to the addition of neutrophils. The suspension medium was unsupplemented EBM or supplemented EBM for studies with cytokines or LPS, respectively. […] Immediately prior to addition of ^51 Cr-labeled neutrophils to the HUVEC monolayers, the cultures were washed with 1 mL unsupplemented media to remove stimulus and/or drug. Neutrophils (5×10^5) were then added to the HUVEC in 0.5 mL unsupplemented media and incubated at 37° C. for 30 minutes. Nonadherent neutrophils were removed by aspiration. Following an additional wash, adherent neutrophils were lysed with 0.5 mL 1N NH4 OH overnight at 37° C. Lysates were collected and the radioactivity in each well was determined by gamma ray spectroscopy.

The structures appear in SMILES notation.

One may read the inhibition as the drop in the measured response relative to a control, in per cent. High values mean a strong effect, low ones a weak effect. What is called IC50 is the concentration that gives 50% inhibition.

On to `CC(C)Oc1c(C(N)=O)sc2ccc(Cl)cc12` [Example 3, 5-Chloro-3-(1-methylethoxy)benzo[b]thiophene-2-carboxamide], for which 100 µM produced 72% inhibition (Table 1, at 100 μM). Same read-out and setting: then `Cc1ccc2sc(C(N)=O)c(OC(C)C)c2c1` [Example 4, 5-Methyl-3-(1-methylethoxy)benzo[b]thiophene-2-carboxamide], with 61%. On the same count and under the same terms, then `CC(C)Oc1c(C(N)=O)sc2ccc([N+](=O)[O-])cc12` [Example 5, 3-(1-Methylethoxy)-5-nitrobenzo[b]thiophene2-carboxamide], with 40%; and `COc1cccc2c(OC(C)C)c(C(N)=O)sc12` [Example 6, 7-Methoxy-3-(1-methylethoxy)benzo[b]thiophene2-carboxamide], with 35%. Molecule `COc1ccc2sc(C(N)=O)c(OC)c2c1` [Example 7, 3,5-Dimethoxybenzo[b]thiophene-2-carboxamide] registered an inhibition at 100 µM (Table 1, at 100 μM) of 60%. Still for that read-out and setting: then `COc1ccc2sc(C(N)=O)c(OCc3ccccc3)c2c1` [Example 8, 5-Methoxy-3-(phenylmethoxy)benzo[b]thiophene2-carboxamide], with 57%.

Regarding `CC(C)Oc1c(C(N)=O)sc2ccc(O)cc12` [Example 10, 5-Hydroxy-3-(1-methylethoxy)benzo[b]thiophene-2-carboxamide], the IC50 (Table 1) turned out to be 1.2 µM. Take `COc1ccc2c(OC(C)C)c(C(N)=O)sc2c1` [Example 11, 6-Methoxy-3-(1-methylethoxy)benzo[b]thiophene-2-carboxamide]: at 100 µM the inhibition (Table 1, at 100 μM) was 24%. `COc1ccc2sc(C(=O)Nc3cccc(C(=O)O)c3)c(OC(C)C)c2c1` [Example 13, 3-[[[5-Methoxy-3-(1-methylethoxy)benzo[b]thien-2-yl]carbonyl]amino]benzoic acid]: the inhibition at 100 µM (Table 2, at 100 μM) turned out to be 28%. Turning to `CCOC(=O)c1ccccc1NC(=O)c1sc2ccc(OC)cc2c1OC(C)C` [Example 14], under “Table 2, at 100 μM”, at 100 µM the inhibition was 32%.

Take `COc1ccc2sc(C(=O)Nc3ccccc3C(=O)O)c(OC(C)C)c2c1` [Example 15, 2-[[[5-Methoxy-3-(1-methylethoxy)benzo[b]thien2-yl]carbonyl]amino]benzoic acid]: under “Table 2, at 100 μM”, the inhibition at 100 µM came to 35%. In turn, `COc1ccc2sc(C(=O)NCc3ccc(C(=O)O)cc3)c(OC(C)C)c2c1` [Example 16, 4-[[[5-Methoxy-3-(1-methylethoxy)benzo[b]thien-2-yl]carbonyl]aminomethyl]benzoic acid] returned an inhibition at 100 µM (Table 2, at 100 μM) of 47%. In turn, `COC(=O)Cc1ccc(NC(=O)c2sc3ccc(OC)cc3c2OC(C)C)cc1` [Example 17] yielded an inhibition at 100 µM (Table 2, at 100 μM) of 27%. Still for that read-out and setting: then `COc1ccc2sc(C(=O)Nc3ccc(CC(=O)O)cc3)c(OC(C)C)c2c1` [Example 18, 4-[[[5-Methoxy-3-(1-methylethoxy)benzo[b]thien2-yl]carbonyl]amino]benzeneacetic acid], with 32%.

With `COC(=O)Cc1cccc(NC(=O)c2sc3ccc(OC)cc3c2OC(C)C)c1` [Example 19, Methyl 3-[[[5-Methoxy-3-(1-methylethoxy)benzo[b]thien-2-yl]carbonyl]amino]benzeneacetate], the inhibition at 100 µM (Table 2, at 100 μM) amounted to 45%. On the same count and under the same terms, then `COc1ccc2sc(C(=O)Nc3cccc(CC(=O)O)c3)c(OC(C)C)c2c1` [Example 20, 3-[[[5-Methoxy-3-(1-methylethoxy)benzo[b]thien-2-yl]carbonyl]amino]benzeneacetic acid], with 70%. As to `COC(=O)CCCCNC(=O)c1sc2ccc(OC)cc2c1OC(C)C` [Example 21, Methyl 5-[[[5-methoxy-3-(1-methylethoxy)benzo[b]thien2-yl]carbonyl]amino]pentanoate], where the note is “Table 2, at 100 μM”, 100 µM produced 8% inhibition. For the molecule `COc1ccc2sc(C(=O)NCCCCC(=O)O)c(OC(C)C)c2c1` [Example 22, 5-[[[5-Methoxy-3-(1-methylethoxy)benzo[b]thien2-yl]carbonyl]amino]pentanoicacid], the inhibition at 100 µM (Table 2, at 100 μM) worked out at 9%. For `COc1ccc2sc(C(=O)Nc3ccsc3C(=O)O)c(OC(C)C)c2c1` [Example 23], the inhibition at 100 µM (Table 2, at 100 μM) came to 20%. Consider `CNC(=O)c1sc2ccc(OC)cc2c1OC(C)C` [Example 24], for which, for the setting “Table 2, at 100 μM”, 100 µM produced 78% inhibition. `CCNC(=O)c1sc2ccc(OC)cc2c1OC(C)C` [Example 25] registered an inhibition at 100 µM (Table 2, at 100 μM) of 64%. Under “Table 2, at 100 μM”, `COc1ccc2sc(C(=O)Nc3ccccc3)c(OC(C)C)c2c1` [Example 26, 5-Methoxy-3-(1-methylethoxy)-N-phenylbenzo[b]thiophene-2-carboxaraide] came in with an inhibition at 100 µM of 12%. `COc1ccc2sc(C(=O)NCc3ccccc3)c(OC(C)C)c2c1` [Example 27, 5-Methoxy-3-(1-methylethoxy)-N-(phenylmethyl)benzo[b]thiophene-2-carboxamide] showed an inhibition at 100 µM (Table 2, at 100 μM) of 35%. On to `COc1ccc2c(c1)C(OC(C)C)=C(C(N)=O)S2(=O)=O` [Example 29, 5-Methoxy-3-(1-methylethoxy)benzo[b]thiophene2-carboxamide 1,1'-dioxide], for which the inhibition at 100 µM (Table 3, at 100 μM) was determined as 4%. Consider `COc1ccc2sc(C(N)=O)c(OC(C)(C)C)c2c1` [Example 30, 3-(1,1-Dimethylethoxy)-5-methoxybenzo[b]thiophene2-carboxamide], for which, where the note is “Table 1, at 100 μM”, at 100 µM the inhibition was 100%. As to `CC(C)Oc1c(C(N)=O)sc2cc(Cl)ccc12` [Example 31, 6-Chloro-3-(1-thylethoxy)benzo[b]thiophene-2-carboxamide], the inhibition at 100 µM (Table 1, at 100 μM) was found to be 26%. Where the note is “Table 1, at 100 μM”, `CC(C)Oc1c(C(N)=O)sc2ccc(N)cc12` [Example 32, 5-Amino-3-(1-methylethoxy)benzo[b]thiophene-2-carboxamide] displayed an inhibition at 100 µM of 49%. In turn, `COC(=O)CCCNC(=O)c1sc2ccc(OC)cc2c1OC(C)C` [Example 33, Methyl 4-[[[5-methoxy-3-(1-methylethoxy)benzo[b]thien-2-yl]carbonyl]amino]butanoate] yielded an inhibition at 100 µM (Table 2, at 100 μM) of 100%.

`COc1ccc2sc(C(=O)NCCCC(=O)O)c(OC(C)C)c2c1` [Example 34, 4-[[[5-Methoxy-3-(1-methylethoxy)benzo[b]thien-2-yl]carbonyl]amino]butanoicacid] displayed an inhibition at 100 µM (Table 2, at 100 μM) of 35%. Turning to `COc1ccc2sc(C(=O)NC(C)C)c(OC(C)C)c2c1` [Example 35, 5-Methoxy-3-(1-methylethoxy)-N-(1-methylethyl)benzo[b]thiophene-2-carboxamide], 100 µM produced 100% inhibition (Table 2, at 100 μM).
